Assay results: ChEMBL document CHEMBL1201862, “PubChem BioAssay data set” (2004)
The source made the active and inactive calls.

Experiments:
[1] = molecular target: Aspartyl aminopeptidase (Plasmodium falciparum 3D7, UniProt Q8I2J3)
[2] = molecular target: Procathepsin L (Homo sapiens, UniProt P07711)
[3] = Luminescence Cell-Based Dose Retest to Confirm Inhibitors of Cancer Stem Cells. [Related pubchem assays (depositor defined):AID2717, AID2721]; assay type: functional; conditions: Homo sapiens
[4] = Luminescence Cell-Based Dose Response HTS to Identify Inhibitors of 5'UTR Stem-Loop Driven Prion Protein mRNA Translation in H4 Neuroglioblastoma Cells. [Related pubchem assays: 1827 (Project Summary), 1813 (Primary HTS)]; assay type: functional
[5] = system: BJ; assay: BJ-TERT-LT-ST fibroblast viability loss – cell-based, RAS-independent, luminescence, dose response (AID 1935); assay type: functional; conditions: Homo sapiens;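 note: BJ fibroblasts immortalized with TERT plus LT and ST oncogenes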
[6] = DRD fibroblast viability loss – cell-based, non-viral oncogenic, luminescence, dose response (AID 1934); assay type: functional; conditions: Homo sapiens
[7] = system: BJ; assay: cells; assay type: functional, cell-based; conditions: Homo sapiens
[8] = luciferase reporter signal suppression in cells – H4 neuroglioma cells, luminescence, dose response (AID 1990); assay type: functional, cell-based
[9] = alpha-synuclein stem-loop translation blockers – luminescence, H4 neuroglioblastoma cells, dose confirmation, confirmation (AID 2454); assay type: functional, cell-based;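 note: H4 neuroglioblastoma cells carrying an alpha-synuclein 5'UTR luciferase reporter; potency for inhibition of the luciferase signal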
[10] = cells; assay type: functional, cell-based
[11] = system: BJ; assay: growth inhibition of engineered Ras-driven BJ cells – cell-based, alamar blue fluorescence, cherrypicked samples, dose response (AID 2631); assay type: functional; conditions: Homo sapiens;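 note: confirmatory dose-response assay in RAS-dependent BJ fibroblasts engineered with TERT, LT and ST, with cytotoxicity read by fluorescence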
[12] = system: BJ; assay: BJ-TERT fibroblast viability loss – cell-based, RAS-independent, luminescence, dose response (AID 1933); assay type: functional; conditions: Homo sapiens
[13] = Luminescence-based dose response cell-based high throughput screening assay for cytotoxic compounds using the IEC-6 intestinal epithelial cell line. [Related pubchem assays: 1858 (Summary AID.), 1825 (Counterscreen.), 1907 (Confirmation screen.)]; assay type: functional
[14] = alpha-synuclein stem-loop luciferase translation blockers – H4 neuroglioma cells, luminescence, confirmation (AID 1988); assay type: functional, cell-based
[15] = luciferase reporter signal reduction – luminescence, H4-C neuroglioblastoma cells, dose response (AID 2458); assay type: functional, cell-based;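 note: H4 neuroglioblastoma cells stably carrying a luciferase reporter gene fusion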
[16] = A cytotoxicity screen of small molecule inhibitors of the PhoP region in Salmonella typhi identified in the primary screen. [Related pubchem assays: 1850, 1864, 1985 ]; assay type: functional
[17] = molecular target: Genome polyprotein (dengue virus type 2, UniProt P29990); assay: flavivirus cap methylation enzyme inhibition – biochemical, confirmation dose response, primary screen (AID 588689); assay type: functional
[18] = molecular target: Epstein-Barr nuclear antigen 1 (Epstein-Barr virus (strain B95-8) (HHV-4) (Human herpesvirus 4), UniProt P03211); assay: inhibition of EBV nuclear antigen 1 DNA binding – biochemical, fluorescence polarization, 1536-well, dose response (AID 2381); design: species or system human gammaherpesvirus 4;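 note: fluorescence polarization of a Cy5 DNA probe bound by EBNA-1 protein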
[19] = molecular target: Lytic switch protein BZLF1 (Epstein-Barr virus (strain B95-8) (HHV-4) (Human herpesvirus 4), UniProt P03206); assay: inhibition of BZLF1 ZTA DNA binding – biochemical, fluorescence polarization, Epstein-Barr virus, 1536-well, counter-screen for EBNA-1 inhibitor project, dose response (AID 2377); design: species or system human gammaherpesvirus 4;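 note: fluorescence polarization of Cy5-labelled ZRE DNA probe bound by purified Zta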
[20] = fluconazole-exposed Candida albicans growth modulators – fluorescence, retest, confirmation (AID 2467); assay type: functional, cell-based
[21] = NIH-3T3 fibroblast cytotoxicity, dose response, cytotoxicity control, cell-based, fluorescence, Alamar Blue, secondary assay (AID 2327); assay type: functional;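 note: NIH-3T3 mouse fibroblasts cultured with fluconazole at 8 µg/mL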
[22] = molecular target: T1, Polyadenylate-binding protein 1 (Homo sapiens, UniProt P11940); assay: MLLE domain peptide-binding blockers, IC50 – biochemical, fluorescence polarization, FITC-PAM2 peptide, dose response (AID 602259); assay type: functional; conditions: read-out: IC50_Mean
[23] = molecular target: T1, Polyadenylate-binding protein 1; assay: MLLE binding blockers, Cy5 peptide tracer – biochemical, fluorescence polarization, Cy5-PAM2 peptide, secondary, miRNA deadenylation inhibitor project, dose response (AID 602260); assay type: functional; conditions: read-out: IC50_Mean
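Throughout, for AC50: cells exposed to compound for roughly 70 hours or longer before luminescence read.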

Chain of Aspartyl aminopeptidase (Q8I2J3 whole entry): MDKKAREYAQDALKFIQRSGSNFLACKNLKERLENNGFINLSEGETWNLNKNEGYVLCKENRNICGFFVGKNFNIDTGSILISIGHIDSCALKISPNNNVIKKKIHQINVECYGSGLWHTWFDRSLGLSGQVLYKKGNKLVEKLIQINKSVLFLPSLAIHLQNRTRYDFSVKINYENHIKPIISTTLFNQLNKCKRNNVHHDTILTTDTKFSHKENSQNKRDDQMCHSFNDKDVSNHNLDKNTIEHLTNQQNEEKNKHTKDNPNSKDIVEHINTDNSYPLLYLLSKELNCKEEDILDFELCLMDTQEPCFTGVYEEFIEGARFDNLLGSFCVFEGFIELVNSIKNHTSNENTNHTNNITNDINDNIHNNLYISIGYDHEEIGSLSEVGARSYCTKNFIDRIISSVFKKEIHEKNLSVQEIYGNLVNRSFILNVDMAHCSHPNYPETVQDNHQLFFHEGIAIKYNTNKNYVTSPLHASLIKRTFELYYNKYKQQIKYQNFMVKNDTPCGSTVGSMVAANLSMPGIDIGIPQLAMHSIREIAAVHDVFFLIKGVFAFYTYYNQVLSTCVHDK
Chain of Procathepsin L (P07711 whole entry): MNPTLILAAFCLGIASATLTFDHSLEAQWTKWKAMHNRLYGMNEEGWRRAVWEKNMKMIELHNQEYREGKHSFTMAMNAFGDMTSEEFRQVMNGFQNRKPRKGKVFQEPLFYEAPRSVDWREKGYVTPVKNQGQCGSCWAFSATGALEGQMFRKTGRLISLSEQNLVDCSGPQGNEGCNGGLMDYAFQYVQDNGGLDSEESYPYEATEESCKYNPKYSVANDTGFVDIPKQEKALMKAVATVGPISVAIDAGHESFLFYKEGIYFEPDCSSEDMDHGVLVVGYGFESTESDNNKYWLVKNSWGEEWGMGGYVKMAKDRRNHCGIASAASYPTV
T1 sequence (P11940 whole entry, the tested form may be a part): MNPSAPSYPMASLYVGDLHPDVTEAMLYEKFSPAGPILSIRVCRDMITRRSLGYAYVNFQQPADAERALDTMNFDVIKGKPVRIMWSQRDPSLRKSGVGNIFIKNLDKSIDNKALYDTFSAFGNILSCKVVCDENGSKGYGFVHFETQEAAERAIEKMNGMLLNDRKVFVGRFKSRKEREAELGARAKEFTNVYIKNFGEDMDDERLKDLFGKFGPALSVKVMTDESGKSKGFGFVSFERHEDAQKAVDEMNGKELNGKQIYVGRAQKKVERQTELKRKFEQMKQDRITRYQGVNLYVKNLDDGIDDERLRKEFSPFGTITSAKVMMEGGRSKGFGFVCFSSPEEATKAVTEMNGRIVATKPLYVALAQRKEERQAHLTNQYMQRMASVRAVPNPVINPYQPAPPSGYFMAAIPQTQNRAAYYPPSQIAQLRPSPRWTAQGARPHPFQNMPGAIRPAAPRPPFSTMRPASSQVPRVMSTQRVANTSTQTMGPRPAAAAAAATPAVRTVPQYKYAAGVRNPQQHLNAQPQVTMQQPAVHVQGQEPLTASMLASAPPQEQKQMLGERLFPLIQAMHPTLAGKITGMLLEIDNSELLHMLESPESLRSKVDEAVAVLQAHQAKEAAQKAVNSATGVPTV
Chain of Genome polyprotein (P29990 2492-3391 limits assumed): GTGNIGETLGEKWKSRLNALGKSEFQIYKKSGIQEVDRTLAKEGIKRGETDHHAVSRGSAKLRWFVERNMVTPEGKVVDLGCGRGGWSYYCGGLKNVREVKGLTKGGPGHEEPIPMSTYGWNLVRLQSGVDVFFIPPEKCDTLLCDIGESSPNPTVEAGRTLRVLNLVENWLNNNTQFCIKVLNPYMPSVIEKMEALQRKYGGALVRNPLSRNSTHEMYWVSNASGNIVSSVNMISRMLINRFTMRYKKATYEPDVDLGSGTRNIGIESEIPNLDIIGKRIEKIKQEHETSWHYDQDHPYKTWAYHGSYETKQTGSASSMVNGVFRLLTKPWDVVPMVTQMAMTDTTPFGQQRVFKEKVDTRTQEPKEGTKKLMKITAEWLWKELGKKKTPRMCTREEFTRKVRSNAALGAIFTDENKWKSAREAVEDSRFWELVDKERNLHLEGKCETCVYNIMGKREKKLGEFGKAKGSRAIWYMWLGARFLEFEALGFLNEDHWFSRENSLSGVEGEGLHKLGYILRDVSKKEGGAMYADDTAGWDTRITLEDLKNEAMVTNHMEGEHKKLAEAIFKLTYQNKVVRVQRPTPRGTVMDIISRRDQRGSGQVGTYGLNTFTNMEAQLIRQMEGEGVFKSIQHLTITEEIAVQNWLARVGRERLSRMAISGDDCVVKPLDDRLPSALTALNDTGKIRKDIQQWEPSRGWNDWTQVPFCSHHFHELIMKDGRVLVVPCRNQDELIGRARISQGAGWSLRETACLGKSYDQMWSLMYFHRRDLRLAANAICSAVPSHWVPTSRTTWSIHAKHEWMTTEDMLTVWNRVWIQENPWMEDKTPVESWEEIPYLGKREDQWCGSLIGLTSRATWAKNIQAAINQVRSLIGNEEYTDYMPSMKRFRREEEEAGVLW
Chain of Epstein-Barr nuclear antigen 1 (P03211 whole entry): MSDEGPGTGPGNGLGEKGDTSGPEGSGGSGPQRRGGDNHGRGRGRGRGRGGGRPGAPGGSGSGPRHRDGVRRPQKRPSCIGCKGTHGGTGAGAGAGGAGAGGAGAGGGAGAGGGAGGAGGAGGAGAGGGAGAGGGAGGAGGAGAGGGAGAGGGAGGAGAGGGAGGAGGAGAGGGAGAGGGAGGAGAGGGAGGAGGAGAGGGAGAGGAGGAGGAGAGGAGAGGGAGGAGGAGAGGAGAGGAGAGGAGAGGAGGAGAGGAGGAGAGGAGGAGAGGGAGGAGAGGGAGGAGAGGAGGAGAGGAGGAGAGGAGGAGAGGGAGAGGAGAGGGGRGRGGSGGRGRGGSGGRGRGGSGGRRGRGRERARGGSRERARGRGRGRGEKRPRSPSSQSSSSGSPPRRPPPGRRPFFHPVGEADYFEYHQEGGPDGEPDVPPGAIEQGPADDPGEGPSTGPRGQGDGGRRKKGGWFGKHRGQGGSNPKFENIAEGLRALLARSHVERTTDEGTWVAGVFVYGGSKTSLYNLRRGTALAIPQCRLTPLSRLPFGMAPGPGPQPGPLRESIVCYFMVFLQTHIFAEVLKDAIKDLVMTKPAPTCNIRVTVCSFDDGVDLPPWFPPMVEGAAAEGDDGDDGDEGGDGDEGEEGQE
Chain of Lytic switch protein BZLF1 (P03206 whole entry): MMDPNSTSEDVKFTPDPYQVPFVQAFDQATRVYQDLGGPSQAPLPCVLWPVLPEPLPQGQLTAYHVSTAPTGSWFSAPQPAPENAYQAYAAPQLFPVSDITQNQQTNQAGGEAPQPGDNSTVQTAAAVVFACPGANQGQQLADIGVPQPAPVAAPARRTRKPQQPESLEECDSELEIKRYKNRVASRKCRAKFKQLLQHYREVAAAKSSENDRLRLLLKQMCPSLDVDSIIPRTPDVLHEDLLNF

Question: Which IC50 [1] does the source give for `COCC(C)NC(=O)NC1(C(F)(F)F)Oc2ccc(Cl)cc2O1` (stereo unspecified) here?
Answer: 1.79 µM (active)

Question: And the IC50 [2]?
Answer: > 59.6 µM (not active)

Question: And the AC50 [3]?
Answer: 6.69 µM (active)

Question: For `O=C(NCCOc1cccnc1)c1ccc(OC2CCN(Cc3ccccn3)CC2)cc1`, which EC50 [4] is on record?
Answer: 0.202 µM (inconclusive)

Question: And the EC50 [5]?
Answer: 0.543 µM (inconclusive)

Question: And the EC50 [6]?
Answer: 3.96 µM (active)

Question: And the EC50 [7]?
Answer: 0.334 µM (inconclusive)

Question: What about the EC50 [8] of the same compound?
Answer: 0.158 µM (active)

Question: And the EC50 [9]?
Answer: 0.623 µM (active)

Question: What about the EC50 [10] of the same compound?
Answer: 0.577 µM (active)

Question: And the EC50 [11]?
Answer: 0.254 µM (active)

Question: And the EC50 [12]?
Answer: 78.3 µM (active)

Question: And the IC50 [13]?
Answer: 0.0533 µM (active)

Question: What about the EC50 [14] of the same compound?
Answer: < 0.1 µM (active)

Question: And the EC50 [15]?
Answer: 0.821 µM (active)

Question: Which results are given for `COc1cc(/C=C(/C#N)C(=O)Nc2ccccc2)c(Br)cc1OCc1ccc(C(=O)O)cc1`?
Answer: EC50 [16]: > 50 µM (active); IC50 [17]: 66.6 µM (active)

Question: What does the source list for `Cc1ccccc1N(C(=O)c1snc(C(N)=O)c1N)C(C(=O)NCC1CCCO1)c1ccc(N(C)C)cc1` (stereo unspecified)?
Answer: IC50 [18]: 13.6 µM (not active); IC50 [19]: > 111 µM (not active)

Question: For `Cc1ccc([N+](=O)[O-])cc1-c1[nH]c(-c2ccc(O)c(O)c2)nc1-c1ccccc1`, which IC50 [1] is on record?
Answer: 1.69 µM (active)

Question: And the IC50 [2]?
Answer: > 59.6 µM (not active)

Question: And the EC50 [20]?
Answer: > 38 µM (not active)

Question: What about the EC50 [21] of the same compound?
Answer: 57.8 µM (active)

Question: Which EC50 [16] does the source give for `O=C(NC(=S)Nc1ccc(S(=O)(=O)Nc2nccs2)cc1)c1cccnc1` here?
Answer: > 50 µM (active)

Question: What about the IC50 [22] of the same compound?
Answer: > 66 µM (inactive)

Question: What about the IC50 [23] of the same compound?
Answer: > 66 µM (inactive)
